Source: patent US11279681B2, “3-alkyl bicyclic [4,5,0] hydroxamic acids as HDAC inhibitors” (Valo Health, Inc., priority 2015, dated 2022)

target: T1, HDAC6 (Homo sapiens, UniProt Q9UBN7); assay: In vitro histone deacetylase assay: enzymatic HDAC6 electrophoretic mobility shift assay; type: biochemical; details: full length human recombinant HDAC6, 1 nM enzyme, 2 μM peptide substrate RHKK(Ac)-NH2, 25° C.; read-out: Inhibitory Concentration (IC50) Values for Representative Compounds against HDAC6, Activity Range
T1 sequence (Q9UBN7 1-1215): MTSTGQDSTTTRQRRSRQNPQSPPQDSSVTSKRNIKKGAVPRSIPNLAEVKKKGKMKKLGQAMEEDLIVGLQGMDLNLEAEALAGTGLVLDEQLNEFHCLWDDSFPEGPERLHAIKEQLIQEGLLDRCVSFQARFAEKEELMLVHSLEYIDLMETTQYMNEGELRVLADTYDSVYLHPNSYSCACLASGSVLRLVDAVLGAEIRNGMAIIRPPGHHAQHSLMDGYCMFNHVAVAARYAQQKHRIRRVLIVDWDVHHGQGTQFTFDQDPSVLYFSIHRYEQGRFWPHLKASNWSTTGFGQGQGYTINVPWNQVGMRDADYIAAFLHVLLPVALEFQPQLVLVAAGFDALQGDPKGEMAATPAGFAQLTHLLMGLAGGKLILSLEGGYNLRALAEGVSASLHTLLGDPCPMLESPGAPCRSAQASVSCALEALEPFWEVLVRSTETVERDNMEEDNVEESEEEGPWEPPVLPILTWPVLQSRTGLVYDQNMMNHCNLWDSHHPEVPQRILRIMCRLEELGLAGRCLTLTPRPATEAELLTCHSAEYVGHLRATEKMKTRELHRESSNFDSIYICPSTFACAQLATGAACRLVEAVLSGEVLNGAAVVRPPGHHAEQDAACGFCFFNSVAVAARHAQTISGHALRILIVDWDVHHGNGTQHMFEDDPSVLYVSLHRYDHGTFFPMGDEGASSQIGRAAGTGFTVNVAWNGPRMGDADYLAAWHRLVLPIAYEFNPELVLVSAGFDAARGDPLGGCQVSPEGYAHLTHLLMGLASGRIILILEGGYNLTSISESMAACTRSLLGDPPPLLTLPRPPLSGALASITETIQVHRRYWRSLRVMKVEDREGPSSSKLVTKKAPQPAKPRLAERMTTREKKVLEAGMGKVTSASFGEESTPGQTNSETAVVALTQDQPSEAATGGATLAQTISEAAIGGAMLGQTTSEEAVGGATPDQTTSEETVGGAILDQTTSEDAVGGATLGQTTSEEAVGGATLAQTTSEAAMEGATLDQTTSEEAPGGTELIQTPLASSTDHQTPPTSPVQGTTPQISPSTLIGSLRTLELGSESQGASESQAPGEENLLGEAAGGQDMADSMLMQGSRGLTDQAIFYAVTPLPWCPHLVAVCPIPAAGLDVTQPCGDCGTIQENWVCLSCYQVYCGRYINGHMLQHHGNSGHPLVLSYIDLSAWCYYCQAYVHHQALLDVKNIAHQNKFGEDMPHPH

Row | IC50 | Structure (SMILES)
1 | 100 to 500 nM | COc1ccc(CN2CCOc3cc(C(=O)NO)ccc3[C@@H]2C)cc1 [(S)-N-hydroxy-4-(4-methoxybenzyl)-5-methyl-2,3,4,5-tetrahydrobenzo[f][1,4]oxazepine-8-carboxamide]
2 | ≤ 100 nM | CC(C)CN1Cc2ccc(C(=O)NO)cc2OC[C@@H]1C [(S)-N-hydroxy-4-isobutyl-3-methyl-2,3,4,5-tetrahydrobenzo[f][1,4]oxazepine-8-carboxamide]
3 | > 500 nM | CC(C)N1Cc2ccc(C(=O)NO)cc2OC[C@@H]1C [(S)-N-hydroxy-4-isopropyl-3-methyl-2,3,4,5-tetrahydrobenzo[f][1,4]oxazepine-8-carboxamide]
4 | 100 to 500 nM | C[C@H]1COc2cc(C(=O)NO)ccc2CN1 [(S)—N-hydroxy-3-methyl-2,3,4,5-tetrahydrobenzo[f][1,4]oxazepine-8-carboxamide]
5 | 100 to 500 nM | O=C1CN(C(=O)N2CCCCC2)Cc2cc(C(=O)NO)ccc2N1 [N-hydroxy-2-oxo-4-(piperidine-1-carbonyl)-2,3,4,5-tetrahydro-1H-benzo[e][1,4]diazepine-7-carboxamide]
6 | ≤ 100 nM | CC1(C)COc2cc(C(=O)NO)ccc2CN1 [N-hydroxy-3,3-dimethyl-2,3,4,5-tetrahydrobenzo[f][1,4]oxazepine-8-carboxamide]
7 | 100 to 500 nM | COCCN1CCOc2cc(C(=O)NO)ccc2C1 [N-hydroxy-4-(2-methoxyethyl)-2,3,4,5-tetrahydrobenzo[f][1,4]oxazepine-8-carboxamide]
8 | 100 to 500 nM | O=C(NO)c1ccc2c(c1)OCCN(c1ccccn1)C2 [N-hydroxy-4-(pyridin-2-yl)-2,3,4,5-tetrahydrobenzo[f][1,4]oxazepine-8-carboxamide]
9 | ≤ 100 nM | O=C(NO)c1ccc2c(c1)OCCN(C(=O)N1CCCC1)C2 [N-hydroxy-4-(pyrrolidine-1-carbonyl)-2,3,4,5-tetrahydrobenzo[f][1,4]oxazepine-8-carboxamide]
10 | 100 to 500 nM | CN1CCOc2cc(C(=O)NO)ccc2C1 [N-hydroxy-4-methyl-2,3,4,5-tetrahydrobenzo[f][1,4]oxazepine-8-carboxamide]
11 | ≤ 100 nM | CN1Cc2ccc(C(=O)NO)cc2OCC12CC2 [N-hydroxy-4-methyl-4,5-dihydro-2H-spiro[benzo[f][1,4]oxazepine-3,1′-cyclopropane]-8-carboxamide]
12 | > 500 nM | O=C(NO)c1ccc2c(c1)OCCN(c1ccccc1)C2 [N-hydroxy-4-phenyl-2,3,4,5-tetrahydrobenzo[f][1,4]oxazepine-8-carboxamide]
13 | 100 to 500 nM | O=C(NO)c1ccc2c(c1)OCC1(CC1)N(c1ccccc1)C2 [N-hydroxy-4-phenyl-4,5-dihydro-2H-spiro[benzo[f][1,4]oxazepine-3,1′-cyclopropane]-8-carboxamide]
14 | ≤ 100 nM | C[C@H]1COc2cc(C(=O)NO)ccc2CN1C(=O)OC1CCC1 [cyclobutyl(S)-8-(hydroxycarbamoyl)-3-methyl-2,3-dihydrobenzo[f][1,4]oxazepine-4(5H)-carboxylate]
15 | ≤ 100 nM | CC(C)OC(=O)N1Cc2ccc(C(=O)NO)cc2OC[C@@H]1C [isopropyl(S)-8-(hydroxycarbamoyl)-3-methyl-2,3-dihydrobenzo[f][1,4]oxazepine-4(5H)-carboxylate]

Further lines, the compound ahead of its results:

Row | Structure (SMILES) | IC50
16 | COC[C@H]1COc2cc(C(=O)NO)ccc2CN1Cc1ccc(OC)cc1 [(S)-N-hydroxy-4-(4-methoxybenzyl)-3-(methoxymethyl)-2,3,4,5-tetrahydrobenzo[f][1,4]oxazepine-8-carboxamide] | ≤ 100 nM
17 | COC1CCN(C(=O)N2Cc3ccc(C(=O)NO)cc3OC[C@@H]2C)CC1 [(S)-N-hydroxy-4-(4-methoxypiperidine-1-carbonyl)-3-methyl-2,3,4,5-tetrahydrobenzo[f][1,4]oxazepine-8-carboxamide] | ≤ 100 nM
18 | COCCS(=O)(=O)N1Cc2ccc(C(=O)NO)cc2OC[C@@H]1C [(S)-N-hydroxy-4-((2-methoxyethyl)sulfonyl)-3-methyl-2,3,4,5-tetrahydrobenzo[f][1,4]oxazepine-8-carboxamide] | 100 to 500 nM
19 | C[C@H]1COc2cc(C(=O)NO)ccc2CN1C(=O)N1Cc2ccccc2C1 [(S)-N-hydroxy-4-(isoindoline-2-carbonyl)-3-methyl-2,3,4,5-tetrahydrobenzo[f][1,4]oxazepine-8-carboxamide] | ≤ 100 nM
20 | C[C@H]1CN(C)Cc2ccc(C(=O)NO)cc2O1 [(S)—N-hydroxy-2,4-dimethyl-2,3,4,5-tetrahydrobenzo[f][1,4]oxazepine-8-carboxamide] | > 500 nM
21 | C[C@H]1CNCc2ccc(C(=O)NO)cc2O1 [(S)—N-hydroxy-2-methyl-2,3,4,5-tetrahydrobenzo[f][1,4]oxazepine-8-carboxamide] | 100 to 500 nM
22 | C[C@H]1COc2cc(C(=O)NO)ccc2CN1C [(S)—N-hydroxy-3,4-dimethyl-2,3,4,5-tetrahydrobenzo[f][1,4]oxazepine-8-carboxamide] | 100 to 500 nM
23 | O=C(NO)c1ccc2c(c1)OCCNC2 [N-hydroxy-2,3,4,5-tetrahydrobenzo[f][1,4]oxazepine-8-carboxamide] | 100 to 500 nM
24 | O=C1CN(c2ccccc2)Cc2cc(C(=O)NO)ccc2N1 [N-hydroxy-2-oxo-4-phenyl-2,3,4,5-tetrahydro-1H-benzo[e][1,4]diazepine-7-carboxamide] | > 500 nM
25 | CN1Cc2ccc(C(=O)NO)cc2OCC1(C)C [N-hydroxy-3,3,4-trimethyl-2,3,4,5-tetrahydrobenzo[f][1,4]oxazepine-8-carboxamide] | ≤ 100 nM
26 | CC1CCCCN1C(=O)N1CCOc2cc(C(=O)NO)ccc2C1 (centres unmarked) [N-hydroxy-4-(2-methylpiperidine-1-carbonyl)-2,3,4,5-tetrahydrobenzo[f][1,4]oxazepine-8-carboxamide] | ≤ 100 nM
27 | CC1COCCN1C(=O)N1CCOc2cc(C(=O)NO)ccc2C1 (centres unmarked) [N-hydroxy-4-(3-methylmorpholine-4-carbonyl)-2,3,4,5-tetrahydrobenzo[f][1,4]oxazepine-8-carboxamide] | 100 to 500 nM
28 | COc1ccc(CN2Cc3ccc(C(=O)NO)cc3OCC23CC3)cc1 [N-hydroxy-4-(4-methoxybenzyl)-4,5-dihydro-2H-spiro[benzo[f][1,4]oxazepine-3,1′-cyclopropane]-8-carboxamide] | ≤ 100 nM
29 | COC1CCN(C(=O)N2CCOc3cc(C(=O)NO)ccc3C2)CC1 [N-hydroxy-4-(4-methoxypiperidine-1-carbonyl)-2,3,4,5-tetrahydrobenzo[f][1,4]oxazepine-8-carboxamide] | 100 to 500 nM
30 | CN1CCN(C(=O)N2CCOc3cc(C(=O)NO)ccc3C2)CC1 [N-hydroxy-4-(4-methylpiperazine-1-carbonyl)-2,3,4,5-tetrahydrobenzo[f][1,4]oxazepine-8-carboxamide] | > 500 nM
31 | O=C(NO)c1ccc2c(c1)OCCN(C(=O)N1Cc3ccccc3C1)C2 [N-hydroxy-4-(isoindoline-2-carbonyl)-2,3,4,5-tetrahydrobenzo[f][1,4]oxazepine-8-carboxamide] | ≤ 100 nM
32 | O=C(NO)c1ccc2c(c1)OCCN(C(=O)N1CCOCC1)C2 [N-hydroxy-4-(morpholine-4-carbonyl)-2,3,4,5-tetrahydrobenzo[f][1,4]oxazepine-8-carboxamide] | 100 to 500 nM
33 | Cc1ccc(N2CCOc3cc(C(=O)NO)ccc3C2)cc1 [N-hydroxy-4-(p-tolyl)-2,3,4,5-tetrahydrobenzo[f][1,4]oxazepine-8-carboxamide] | 100 to 500 nM
34 | O=C(NO)c1ccc2c(c1)OCCN(c1cccnc1)C2 [N-hydroxy-4-(pyridin-3-yl)-2,3,4,5-tetrahydrobenzo[f][1,4]oxazepine-8-carboxamide] | 100 to 500 nM
35 | O=C(NO)c1ccc2c(c1)OCCN(c1ccncc1)C2 [N-hydroxy-4-(pyridin-4-yl)-2,3,4,5-tetrahydrobenzo[f][1,4]oxazepine-8-carboxamide] | > 500 nM
36 | C[C@H]1COc2cc(C(=O)NO)ccc2CN1C(=O)OC1CCCCC1 [cyclohexyl(S)-8-(hydroxycarbamoyl)-3-methyl-2,3-dihydrobenzo[f][1,4]oxazepine-4(5H)-carboxylate] | ≤ 100 nM
37 | C[C@H]1COc2cc(C(=O)NO)ccc2CN1C(=O)OC1CCCC1 [cyclopentyl(S)-8-(hydroxycarbamoyl)-3-methyl-2,3-dihydrobenzo[f][1,4]oxazepine-4(5H)-carboxylate] | ≤ 100 nM
38 | CCOC(=O)N1Cc2ccc(C(=O)NO)cc2OC[C@@H]1C [ethyl(S)-8-(hydroxycarbamoyl)-3-methyl-2,3-dihydrobenzo[f][1,4]oxazepine-4(5H)-carboxylate] | ≤ 100 nM
